Test results taken from PMC3701955 (Bioorganic & medicinal chemistry, 2012).

How the values were obtained:
[1] = cited from earlier work
human V1aR = human V1aR (Homo sapiens, UniProt P37288); format: binding; conditions: competition with [3H]-AVP, NIMH PDSP
[2] = target: T1, human vasopressin receptor V1b (Homo sapiens, UniProt P47901); format: binding; conditions: competition with [3H]-AVP, NIMH PDSP
T1 sequence (P47901 1-424): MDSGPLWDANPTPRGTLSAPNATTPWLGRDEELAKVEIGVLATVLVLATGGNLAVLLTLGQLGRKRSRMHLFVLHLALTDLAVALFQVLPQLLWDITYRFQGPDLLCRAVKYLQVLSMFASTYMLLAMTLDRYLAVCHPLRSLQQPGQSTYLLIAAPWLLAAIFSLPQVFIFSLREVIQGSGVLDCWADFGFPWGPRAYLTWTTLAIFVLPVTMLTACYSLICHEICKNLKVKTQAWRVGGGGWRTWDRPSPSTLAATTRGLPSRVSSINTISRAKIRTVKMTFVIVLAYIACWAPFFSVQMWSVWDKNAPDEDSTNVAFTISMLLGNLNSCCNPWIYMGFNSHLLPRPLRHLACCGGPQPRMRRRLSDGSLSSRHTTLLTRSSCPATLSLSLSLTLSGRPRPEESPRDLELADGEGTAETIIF

[3] = target: human vasopressin receptor V2 (Homo sapiens, UniProt P30518); format: binding; conditions: competition with [3H]-AVP, NIMH PDSP
Chain of human vasopressin receptor V2 (P30518 whole entry): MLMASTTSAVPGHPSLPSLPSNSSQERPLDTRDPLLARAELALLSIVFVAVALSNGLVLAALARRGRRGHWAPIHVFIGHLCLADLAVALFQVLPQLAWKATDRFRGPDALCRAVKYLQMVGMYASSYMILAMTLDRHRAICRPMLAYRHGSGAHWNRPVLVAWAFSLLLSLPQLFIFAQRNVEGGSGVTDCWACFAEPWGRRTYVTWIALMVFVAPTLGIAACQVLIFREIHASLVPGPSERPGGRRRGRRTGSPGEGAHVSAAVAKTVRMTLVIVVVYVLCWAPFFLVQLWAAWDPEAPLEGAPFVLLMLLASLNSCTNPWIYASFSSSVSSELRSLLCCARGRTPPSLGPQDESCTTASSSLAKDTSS

Chain of human V1aR (P37288 whole entry): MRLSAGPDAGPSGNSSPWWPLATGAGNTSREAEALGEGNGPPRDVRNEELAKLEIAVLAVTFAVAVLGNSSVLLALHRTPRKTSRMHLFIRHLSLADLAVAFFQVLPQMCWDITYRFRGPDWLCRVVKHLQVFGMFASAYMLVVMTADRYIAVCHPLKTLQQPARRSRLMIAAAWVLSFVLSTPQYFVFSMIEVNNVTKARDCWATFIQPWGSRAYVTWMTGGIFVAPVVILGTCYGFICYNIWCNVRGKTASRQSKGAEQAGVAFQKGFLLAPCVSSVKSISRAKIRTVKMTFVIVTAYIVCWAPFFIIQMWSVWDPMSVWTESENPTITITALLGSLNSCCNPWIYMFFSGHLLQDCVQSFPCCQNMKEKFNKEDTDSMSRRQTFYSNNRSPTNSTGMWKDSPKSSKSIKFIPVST

Row | Structure (SMILES) | brain penetration [1] | Ki Human V1aR (human V1aR) | Ki Human V1b [2] | Ki Human V2 [3]
1 | COc1cc(OC2CCN(C(C)=O)CC2)ccc1C(=O)N1CCC(N2C(=O)OCc3ccccc32)CC1 [Compound L-371257] | very poor brain penetrant |  |  | 
2 | CS(=O)(=O)N1CCC(Oc2ccc(CC(=O)N3CCC(N4C(=O)CCc5ccccc54)CC3)c(O)c2)CC1 [Compound 13, 1-(1-(2-(2-Hydroxy-4-(1-(methylsulfonyl)piperidin-4-yloxy)phenyl)acetyl)piperidin-4-yl)-3,4-dihydroquinolin-2(1H)-one] |  | no detectable affinity | no detectable affinity | no detectable affinity
